Results published in ChEMBL document CHEMBL5321200, “Discovery of the GSH responsive "Y-PROTACs" targeting ALK and CDK4/6 as a potential treatment for cancer” (Eur J Med Chem, 2023).
pEC50, pIC50: −log10 of the molar value. Activity calls are given as the source filed them. No cut-off for these calls is given here.

Columns and labels:
NCI-H3122 [1] = test: Antiproliferative activity against human NCI-H3122 cells assessed as inhibition of cell growth incubated for 3 to 5 days by MTT assay; assay type: functional, cell-based
[2] = Cytotoxicity against human L02 cells assessed as inhibition of cell growth pretreated with GSH followed by compound addition and incubated for 3 to 5 days by MTT assay; assay type: toxicity, cell-based
[3] = biological target: T1, Protein cereblon/ALK tyrosine kinase receptor/Echinoderm microtubule-associated protein-like 4 (Homo sapiens) (UniProt Q9UM73+Q9HC35+Q96SW2); test: PROTAC activity at CRBN/EML4-ALK in human NCI-H3122 cells assessed as reduction in EML4-ALK fusion protein level at 10 uM incubated for 24 hrs by Western blot analysis; assay type: cell-based
[4] = biological target: Protein cereblon/Cyclin-dependent kinase 6 (Homo sapiens) (UniProt Q00534+Q96SW2); test: PROTAC activity at CRBN/CDK6 in human NCI-H3122 cells assessed as reduction in CDK6 protein level at 1 to 10 uM incubated for 24 hrs by Western blot analysis; assay type: cell-based; settings: dose 1-10 µM
[5] = biological target: Protein cereblon/ALK tyrosine kinase receptor (Homo sapiens) (UniProt Q9UM73+Q96SW2); test: PROTAC activity at CRBN/ALK in human NCI-H2228 cells assessed as reduction in ALK protein level by Western blot analysis; assay type: cell-based
[6] = biological target: T2, Protein cereblon/Cyclin-dependent kinase 4 (Homo sapiens, UniProt P11802+Q96SW2); test: PROTAC activity at CRBN/CDK4 in human NCI-H2228 cells assessed as reduction in CDK4 protein level by Western blot analysis; assay type: cell-based
Target sequence in this assay (P11802 2-303 limits assumed): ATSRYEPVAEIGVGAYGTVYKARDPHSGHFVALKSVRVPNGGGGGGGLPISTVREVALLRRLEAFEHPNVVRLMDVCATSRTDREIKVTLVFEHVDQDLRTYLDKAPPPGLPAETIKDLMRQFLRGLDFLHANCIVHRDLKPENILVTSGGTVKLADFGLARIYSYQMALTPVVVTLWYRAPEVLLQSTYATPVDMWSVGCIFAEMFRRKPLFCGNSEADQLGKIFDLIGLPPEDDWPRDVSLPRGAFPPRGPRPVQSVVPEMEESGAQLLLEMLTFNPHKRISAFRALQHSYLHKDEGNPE
Target sequence in this assay (Q96SW2 whole entry partner): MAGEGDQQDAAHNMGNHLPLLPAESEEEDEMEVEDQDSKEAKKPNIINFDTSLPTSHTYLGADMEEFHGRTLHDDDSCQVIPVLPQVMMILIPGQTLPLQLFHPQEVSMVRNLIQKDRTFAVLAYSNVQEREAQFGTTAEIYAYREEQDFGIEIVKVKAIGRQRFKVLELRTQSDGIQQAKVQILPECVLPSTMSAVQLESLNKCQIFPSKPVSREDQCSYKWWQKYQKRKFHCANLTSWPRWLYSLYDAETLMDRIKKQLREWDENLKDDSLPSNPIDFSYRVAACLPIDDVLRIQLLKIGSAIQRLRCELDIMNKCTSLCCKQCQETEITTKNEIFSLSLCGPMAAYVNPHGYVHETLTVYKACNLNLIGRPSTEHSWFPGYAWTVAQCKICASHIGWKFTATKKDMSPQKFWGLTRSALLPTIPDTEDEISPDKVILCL

[7] = biological target: T2, Protein cereblon/Cyclin-dependent kinase 4; test: PROTAC activity at CRBN/CDK4 in human NCI-H3122 cells assessed as decrease in CDK4 protein level at 0.1 to 20 uM incubated for 24 hrs in presence of GSH by Western blot analysis; assay type: cell-based; settings: dose 0.1-20 µM
Target sequence in this assay (P11802 2-303 limits assumed): as the sequence (P11802 2-303 limits assumed) above
Target sequence in this assay (Q96SW2 whole entry partner): as the sequence (Q96SW2 whole entry partner) above

[8] = biological target: T2, Protein cereblon/Cyclin-dependent kinase 4; test: PROTAC activity at CRBN/CDK4 in human L02 cells assessed as reduction in CDK4 protein level at 1 to 20 uM incubated for 24 hrs in presence of GSH by Western blot analysis; assay type: cell-based; settings: dose 1-20 µM
Target sequence in this assay (P11802 2-303 limits assumed): as the sequence (P11802 2-303 limits assumed) above
Target sequence in this assay (Q96SW2 whole entry partner): as the sequence (Q96SW2 whole entry partner) above

[9] = biological target: ALK tyrosine kinase receptor (Homo sapiens) (UniProt Q9UM73); test: Inhibition of ALK (unknown origin) at 0.05 uM by LANCE Ultra TR-FRET assay relative to control
[10] = biological target: Cyclin-dependent kinase 6 (Homo sapiens) (UniProt Q00534); test: Inhibition of CDK6 (unknown origin) at 0.05 uM by LANCE Ultra TR-FRET assay relative to control
[11] = Stability of the compound in PBS buffer incubated upto 24 hrs in the presence of GSH by LC-MS/MS analysis; assay type: physicochemical
[12] = biological target: T2, Protein cereblon/Cyclin-dependent kinase 4; test: PROTAC activity at CRBN/CDK4 in human NCI-H3122 cells assessed as reduction in CDK4 protein level incubated for 24 hrs by Western blot analysis; assay type: cell-based
Target sequence in this assay (P11802 whole entry): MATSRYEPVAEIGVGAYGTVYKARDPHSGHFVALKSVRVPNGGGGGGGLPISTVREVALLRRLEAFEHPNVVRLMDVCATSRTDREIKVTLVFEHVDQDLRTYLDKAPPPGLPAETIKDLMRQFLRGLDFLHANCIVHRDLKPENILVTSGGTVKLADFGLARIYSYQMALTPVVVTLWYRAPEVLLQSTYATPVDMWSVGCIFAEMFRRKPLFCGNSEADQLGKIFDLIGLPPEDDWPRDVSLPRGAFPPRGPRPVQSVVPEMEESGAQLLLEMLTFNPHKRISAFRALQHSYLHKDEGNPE
Target sequence in this assay (Q96SW2 whole entry): as the sequence (Q96SW2 whole entry partner) above

[13] = biological target: T2, Protein cereblon/Cyclin-dependent kinase 4; test: PROTAC activity at CRBN/CDK4 in human NCI-H3122 cells assessed as induction of CDK4 protein degradation at 5 uM measured after 16 hrs by Western blot analysis; assay type: cell-based
Target sequence in this assay (P11802 2-303 limits assumed): as the sequence (P11802 2-303 limits assumed) above
Target sequence in this assay (Q96SW2 whole entry partner): as the sequence (Q96SW2 whole entry partner) above

[14] = biological target: T1, Protein cereblon/ALK tyrosine kinase receptor/Echinoderm microtubule-associated protein-like 4 (Homo sapiens); test: PROTAC activity at CRBN/EML4-ALK in human NCI-H3122 cells assessed as reduction in EML4-ALK fusion protein level at 5 uM incubated for 48 hrs followed by compound washout and measured within 16 hrs by Western blot analysis; assay type: cell-based
[15] = biological target: T1, Protein cereblon/ALK tyrosine kinase receptor/Echinoderm microtubule-associated protein-like 4 (Homo sapiens); test: PROTAC activity at CRBN/EML4-ALK in human NCI-H3122 cells assessed as degradation of EML4-ALK fusion protein at 5 uM pretreated with pomalidomide for 4 hrs followed by compound addition and measured after 24 hrs by Western blot analysis; assay type: cell-based
NCI-H3122 [16] = test: Cell cycle arrest in human NCI-H3122 cells assessed as accumulation of cells at G0/G1 phase at 2.5 uM incubated for 24 hrs by propidium iodide staining based flow cytometric analysis (reference value: 48.68%); assay type: functional
NCI-H3122 [17] = test: Cell cycle arrest in human NCI-H3122 cells assessed as accumulation of cells at S phase at 0.625 uM incubated for 24 hrs by propidium iodide staining based flow cytometric analysis (reference value: 29.94%); assay type: functional
NCI-H3122 [18] = test: Cell cycle arrest in human NCI-H3122 cells assessed as accumulation of cells at S phase at 2.5 uM incubated for 24 hrs by propidium iodide staining based flow cytometric analysis (reference value: 29.94%); assay type: functional
NCI-H3122 [19] = test: Induction of apoptosis in human NCI-H3122 cells assessed as viable cells at 2.5 uM incubated for 48 hrs by Annexin V-FITC/propidium iodide staining based flow cytometric analysis (reference value: 95.66%); assay type: functional; settings: read-out: Activity
NCI-H3122 [20] = test: Induction of apoptosis in human NCI-H3122 cells assessed as early apoptotic cells at 0.625 uM incubated for 48 hrs by Annexin V-FITC/propidium iodide staining based flow cytometric analysis (reference value: 0.71%); assay type: functional
NCI-H3122 [21] = test: Induction of apoptosis in human NCI-H3122 cells assessed as early apoptotic cells at 2.5 uM incubated for 48 hrs by Annexin V-FITC/propidium iodide staining based flow cytometric analysis (reference value: 0.71%); assay type: functional
NCI-H3122 [22] = test: Induction of apoptosis in human NCI-H3122 cells assessed as late apoptotic cells at 0.312 uM incubated for 48 hrs by Annexin V-FITC/propidium iodide staining based flow cytometric analysis (reference value: 3.06%); assay type: functional
NCI-H3122 [23] = test: Induction of apoptosis in human NCI-H3122 cells assessed as necrotic cells at 0.625 uM incubated for 48 hrs by Annexin V-FITC/propidium iodide staining based flow cytometric analysis (reference value: 0.57%); assay type: functional
NCI-H3122 [24] = test: Induction of apoptosis in human NCI-H3122 cells assessed as necrotic cells at 1.25 uM incubated for 48 hrs by Annexin V-FITC/propidium iodide staining based flow cytometric analysis (reference value: 0.57%); assay type: functional
NCI-H3122 [25] = test: Induction of apoptosis in human NCI-H3122 cells assessed as total apoptotic cells at 2.5 uM incubated for 48 hrs by Annexin V-FITC/propidium iodide staining based flow cytometric analysis relative to control; assay type: functional
[26] = Toxicity in BALB/c nude mouse xenografted with human NCI-H3122 cells assessed as effect on visceral spleen morphology at 75 mg/kg, IG administered once daily for 18 days and measured after 12 hrs of last dose by H and E staining based analysis; assay type: organism-based; settings: in vivo, po, 444 h
[27] = Toxicity in BALB/c nude mouse xenografted with human NCI-H3122 cells assessed as effect on visceral kidney morphology at 75 mg/kg, IG administered once daily for 18 days and measured after 12 hrs of last dose by H and E staining based analysis; assay type: organism-based; settings: in vivo, po, 444 h
[28] = Toxicity in BALB/c nude mouse xenografted with human NCI-H3122 cells assessed as effect on liver function at 75 mg/kg, IG administered once daily for 18 days by H and E staining based assay; assay type: organism-based; settings: in vivo, po, 432 h, time 18 day
[29] = Toxicity in BALB/c nude mouse xenografted with human NCI-H3122 cells assessed as effect on heart function at 75 mg/kg, IG administered once daily for 18 days and measured after 12 hrs of last dose by H and E staining based assay; assay type: organism-based; settings: in vivo, po, 444 h

T1 sequence (Q96SW2 whole entry partner, the tested form may be a part): as the sequence (Q96SW2 whole entry partner) above
T1 sequence (Q9HC35 whole entry partner, the tested form may be a part): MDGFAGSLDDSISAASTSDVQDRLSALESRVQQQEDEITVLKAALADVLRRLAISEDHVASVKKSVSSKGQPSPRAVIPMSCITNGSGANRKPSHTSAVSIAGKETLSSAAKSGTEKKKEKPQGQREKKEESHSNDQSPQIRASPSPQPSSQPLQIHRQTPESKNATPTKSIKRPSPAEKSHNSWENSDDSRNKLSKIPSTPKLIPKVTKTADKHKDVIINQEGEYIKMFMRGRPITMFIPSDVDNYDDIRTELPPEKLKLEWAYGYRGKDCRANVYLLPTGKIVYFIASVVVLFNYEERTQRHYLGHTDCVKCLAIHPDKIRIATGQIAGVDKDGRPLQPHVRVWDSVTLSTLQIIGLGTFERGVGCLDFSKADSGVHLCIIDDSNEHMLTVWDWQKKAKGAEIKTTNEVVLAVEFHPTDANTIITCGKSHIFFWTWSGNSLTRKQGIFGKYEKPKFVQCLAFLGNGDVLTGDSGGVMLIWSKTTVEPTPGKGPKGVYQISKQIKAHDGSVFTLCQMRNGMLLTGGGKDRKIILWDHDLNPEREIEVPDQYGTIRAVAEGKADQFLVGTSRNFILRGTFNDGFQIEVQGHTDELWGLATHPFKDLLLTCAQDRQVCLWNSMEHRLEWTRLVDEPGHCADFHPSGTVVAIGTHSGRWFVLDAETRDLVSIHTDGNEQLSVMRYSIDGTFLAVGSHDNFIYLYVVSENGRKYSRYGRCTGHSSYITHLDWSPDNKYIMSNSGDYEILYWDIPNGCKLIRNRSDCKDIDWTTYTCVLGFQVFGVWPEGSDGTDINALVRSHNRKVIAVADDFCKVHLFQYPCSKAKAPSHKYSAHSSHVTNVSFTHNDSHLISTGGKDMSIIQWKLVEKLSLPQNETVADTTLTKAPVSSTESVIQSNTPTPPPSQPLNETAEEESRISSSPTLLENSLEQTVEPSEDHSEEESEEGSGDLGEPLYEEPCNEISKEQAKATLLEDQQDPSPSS
T1 sequence (Q9UM73 19-1620 limits assumed): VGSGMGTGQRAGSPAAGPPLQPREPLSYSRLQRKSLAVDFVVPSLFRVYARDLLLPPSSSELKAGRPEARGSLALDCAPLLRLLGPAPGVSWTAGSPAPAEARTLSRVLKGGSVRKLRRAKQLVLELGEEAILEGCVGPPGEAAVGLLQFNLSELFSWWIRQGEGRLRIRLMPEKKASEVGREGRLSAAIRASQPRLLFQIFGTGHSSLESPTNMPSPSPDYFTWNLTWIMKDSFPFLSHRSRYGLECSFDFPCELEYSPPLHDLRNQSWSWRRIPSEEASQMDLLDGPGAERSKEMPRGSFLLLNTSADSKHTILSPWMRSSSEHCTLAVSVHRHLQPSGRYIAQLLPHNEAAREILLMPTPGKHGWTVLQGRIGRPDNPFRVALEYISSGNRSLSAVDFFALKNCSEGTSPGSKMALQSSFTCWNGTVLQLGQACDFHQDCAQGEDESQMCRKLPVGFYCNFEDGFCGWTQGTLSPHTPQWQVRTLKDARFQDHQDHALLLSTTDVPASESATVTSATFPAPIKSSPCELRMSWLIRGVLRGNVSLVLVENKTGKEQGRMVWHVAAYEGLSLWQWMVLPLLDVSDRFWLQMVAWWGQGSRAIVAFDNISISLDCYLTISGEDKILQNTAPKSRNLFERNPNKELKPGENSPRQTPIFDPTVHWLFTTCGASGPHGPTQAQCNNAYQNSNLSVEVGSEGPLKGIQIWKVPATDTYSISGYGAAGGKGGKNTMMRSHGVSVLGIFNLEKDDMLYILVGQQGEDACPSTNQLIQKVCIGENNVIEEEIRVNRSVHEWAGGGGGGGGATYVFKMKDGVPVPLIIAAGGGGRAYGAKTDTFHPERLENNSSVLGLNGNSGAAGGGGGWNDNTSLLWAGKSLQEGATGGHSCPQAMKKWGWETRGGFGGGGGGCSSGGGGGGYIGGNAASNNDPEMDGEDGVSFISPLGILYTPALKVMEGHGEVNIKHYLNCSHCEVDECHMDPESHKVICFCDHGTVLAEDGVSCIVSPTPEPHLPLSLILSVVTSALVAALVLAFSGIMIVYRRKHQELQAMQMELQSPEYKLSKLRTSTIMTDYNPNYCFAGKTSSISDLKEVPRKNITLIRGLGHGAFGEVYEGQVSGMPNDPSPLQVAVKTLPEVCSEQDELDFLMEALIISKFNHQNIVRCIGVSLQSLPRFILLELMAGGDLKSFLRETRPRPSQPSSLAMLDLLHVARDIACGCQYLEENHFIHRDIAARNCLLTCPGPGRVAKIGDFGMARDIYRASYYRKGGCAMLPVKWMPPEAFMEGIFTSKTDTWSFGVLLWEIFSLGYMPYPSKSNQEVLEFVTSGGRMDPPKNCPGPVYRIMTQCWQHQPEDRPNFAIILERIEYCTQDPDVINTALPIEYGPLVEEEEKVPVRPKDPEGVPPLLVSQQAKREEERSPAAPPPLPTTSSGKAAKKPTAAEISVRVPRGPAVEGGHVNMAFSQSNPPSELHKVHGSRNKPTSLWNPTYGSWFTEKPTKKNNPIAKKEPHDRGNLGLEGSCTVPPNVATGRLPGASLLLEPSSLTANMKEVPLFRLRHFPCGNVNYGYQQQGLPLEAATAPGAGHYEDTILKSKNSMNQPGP

CC(=O)c1c(C)c2cnc(Nc3ccc(N4CCN(CC(=O)NCCSSCCN(CC(=O)NCCNc5cccc6c5C(=O)N(C5CCC(=O)NC5=O)C6=O)C(=O)CCCCCCC(=O)N5CCC(c6cc(OC(C)C)c(Nc7ncc(Cl)c(Nc8ccccc8S(=O)(=O)C(C)C)n7)cc6C)CC5)CC4)cn3)nc2n(C2CCCC2)c1=O (centres undefined)
pIC50 (NCI-H3122 [1]): 6.85
pIC50 [2]: 4.90
Activity [3]: Active
Activity [4]: inactive
Activity [5]: Active
Activity [6]: Active
Activity [7]: inactive
Activity [8]: inactive
inhibition [9]: 68.3%
inhibition [10]: 92%
Stability [11]: Stable
pEC50 [12]: 5.43
Activity [13]: Active
Activity [14]: Active
Activity [15]: inactive
Activity (NCI-H3122 [16]): 81.72%
Activity (NCI-H3122 [17]): 14.44%
Activity (NCI-H3122 [18]): 6.04%
viability at 2.5 µM (NCI-H3122 [19]): 81.8%
Activity (NCI-H3122 [20]): 0.88%
Activity (NCI-H3122 [21]): 1.35%
Activity (NCI-H3122 [22]): 5.85%
Activity (NCI-H3122 [23]): 2.11%
Activity (NCI-H3122 [24]): 1.91%
Activity (NCI-H3122 [25]): 17.2%
Activity [26]: Non-Toxic
Activity [27]: Non-Toxic
Activity [28]: Non-Toxic
Activity [29]: Non-Toxic
